# Measurements as given in ChEMBL document CHEMBL4387773, “Identification of potent, selective and orally bioavailable phenyl ((R)-3-phenylpyrrolidin-3-yl)sulfone analogues as RORγt inverse agonists” (Bioorg Med Chem Lett, 2019).
# pEC50: −log10 of the molar value.
# Target: T1, Nuclear receptor subfamily 1 group I member 2 (Homo sapiens, UniProt O75469)
# T1 sequence (O75469 whole entry): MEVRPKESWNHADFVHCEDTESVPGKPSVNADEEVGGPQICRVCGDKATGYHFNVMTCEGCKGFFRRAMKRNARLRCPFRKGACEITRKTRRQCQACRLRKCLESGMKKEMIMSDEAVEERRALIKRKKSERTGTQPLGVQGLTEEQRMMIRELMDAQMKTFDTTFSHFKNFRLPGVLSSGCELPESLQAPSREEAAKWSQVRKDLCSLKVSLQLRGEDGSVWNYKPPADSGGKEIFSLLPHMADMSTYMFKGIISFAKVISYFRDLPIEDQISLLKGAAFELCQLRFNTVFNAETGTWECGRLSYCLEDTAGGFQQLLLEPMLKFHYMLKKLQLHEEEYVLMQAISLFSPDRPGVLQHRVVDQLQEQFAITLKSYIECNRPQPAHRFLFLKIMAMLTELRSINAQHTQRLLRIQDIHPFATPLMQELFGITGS
# Test: Transactivation of PXR (unknown origin) expressed in human HepG2 cells
# Type: cell-based
# Conditions: not given
row,pEC50,SMILES
1,< 4.30,COC1(C(=O)N2CC[C@](c3ccc(C(F)(C(F)(F)F)C(F)(F)F)cc3)(S(=O)(=O)c3ccc(F)cc3)C2)CCS(=O)(=O)CC1
2,4.97,O=C(O)[C@H]1CC[C@](F)(C(=O)N2CC[C@](c3ccc(C(F)(C(F)(F)F)C(F)(F)F)cc3)(S(=O)(=O)c3ccc(F)cc3)C2)CC1

# Target: T2, PXR (Homo sapiens, UniProt O75469)
# T2 sequence (O75469 whole entry): T1 sequence (O75469 whole entry)
# Test: Transactivation of PXR (unknown origin) expressed in human HepG2 cells assessed as maximum receptor activation response relative to control
# Type: cell-based
# Conditions: human HepG2 cells that express PXR, read-out: %max
row,Emax [%],SMILES
1,3,COC1(C(=O)N2CC[C@](c3ccc(C(F)(C(F)(F)F)C(F)(F)F)cc3)(S(=O)(=O)c3ccc(F)cc3)C2)CCS(=O)(=O)CC1
2,31,O=C(O)[C@H]1CC[C@](F)(C(=O)N2CC[C@](c3ccc(C(F)(C(F)(F)F)C(F)(F)F)cc3)(S(=O)(=O)c3ccc(F)cc3)C2)CC1

# Target: T3, Nuclear receptor ROR-alpha (Homo sapiens, UniProt P35398)
# T3 sequence (P35398 whole entry): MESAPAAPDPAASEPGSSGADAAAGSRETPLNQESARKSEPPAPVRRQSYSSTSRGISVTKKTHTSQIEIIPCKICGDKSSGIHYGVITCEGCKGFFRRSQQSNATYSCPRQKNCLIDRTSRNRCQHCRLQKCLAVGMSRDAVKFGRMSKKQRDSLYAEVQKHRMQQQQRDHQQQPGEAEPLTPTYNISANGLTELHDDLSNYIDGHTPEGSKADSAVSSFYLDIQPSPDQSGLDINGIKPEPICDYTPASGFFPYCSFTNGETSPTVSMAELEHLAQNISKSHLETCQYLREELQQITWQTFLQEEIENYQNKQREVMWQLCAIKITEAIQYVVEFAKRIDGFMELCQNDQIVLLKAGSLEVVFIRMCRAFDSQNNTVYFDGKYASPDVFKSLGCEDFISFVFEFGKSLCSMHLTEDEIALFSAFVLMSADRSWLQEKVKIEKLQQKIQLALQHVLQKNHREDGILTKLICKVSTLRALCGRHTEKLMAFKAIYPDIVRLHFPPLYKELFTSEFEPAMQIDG
# Test: Inverse agonist activity at human Gal4-fused RORalpha LBD (272 to 556 residues) expressed in human Jurkat cells measured after 18 hrs by steady-glo luciferase reporter gene assay
# Type: cell-based
# Conditions: not given
row,SMILES,pEC50
1,O=C(O)C12CCC(C(=O)N3CC[C@](c4ccc(C(F)(C(F)(F)F)C(F)(F)F)cc4)(S(=O)(=O)c4ccc(F)cc4)C3)(CC1)C2,< 4.40
2,CCC[C@]1(C(=O)N2CC[C@](c3ccc(C(F)(C(F)(F)F)C(F)(F)F)cc3)(S(=O)(=O)c3ccc(F)cc3)C2)CC[C@H](C(=O)O)CC1,< 4.40

# The remaining lines, values ahead:
row,pEC50,SMILES
1,< 4.40,COC(=O)[C@H]1CC[C@H](C(=O)N2CC[C@](c3ccc(C(F)(C(F)(F)F)C(F)(F)F)cc3)(S(=O)(=O)c3ccc(F)cc3)C2)CC1
2,< 4.40,COC1(C(=O)N2CC[C@](c3ccc(C(F)(C(F)(F)F)C(F)(F)F)cc3)(S(=O)(=O)c3ccc(F)cc3)C2)CCS(=O)(=O)CC1
3,< 4.40,O=C(O)[C@H]1CC[C@](F)(C(=O)N2CC[C@](c3ccc(C(F)(C(F)(F)F)C(F)(F)F)cc3)(S(=O)(=O)c3ccc(F)cc3)C2)CC1

# Target: T4, Nuclear receptor ROR-beta (Homo sapiens, UniProt Q92753)
# T4 sequence (Q92753 whole entry): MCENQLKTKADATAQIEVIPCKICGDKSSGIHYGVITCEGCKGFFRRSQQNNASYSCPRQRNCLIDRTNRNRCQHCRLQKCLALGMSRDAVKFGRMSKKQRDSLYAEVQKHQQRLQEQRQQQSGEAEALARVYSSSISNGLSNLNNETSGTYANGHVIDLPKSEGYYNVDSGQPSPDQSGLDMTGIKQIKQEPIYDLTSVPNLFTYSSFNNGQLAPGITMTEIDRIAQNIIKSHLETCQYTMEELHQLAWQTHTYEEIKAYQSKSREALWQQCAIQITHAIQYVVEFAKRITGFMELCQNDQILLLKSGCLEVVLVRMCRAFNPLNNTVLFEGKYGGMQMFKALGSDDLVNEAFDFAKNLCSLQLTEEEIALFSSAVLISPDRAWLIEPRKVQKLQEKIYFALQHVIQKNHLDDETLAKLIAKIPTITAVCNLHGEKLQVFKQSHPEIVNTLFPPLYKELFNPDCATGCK
# Test: Inverse agonist activity at human Gal4-fused RORbeta LBD (200 to 559 residues) expressed in human Jurkat cells measured after 18 hrs by steady-glo luciferase reporter gene assay
# Type: cell-based
# Conditions: not given
row,SMILES,pEC50
1,O=C(O)C12CCC(C(=O)N3CC[C@](c4ccc(C(F)(C(F)(F)F)C(F)(F)F)cc4)(S(=O)(=O)c4ccc(F)cc4)C3)(CC1)C2,< 4.40
2,CCC[C@]1(C(=O)N2CC[C@](c3ccc(C(F)(C(F)(F)F)C(F)(F)F)cc3)(S(=O)(=O)c3ccc(F)cc3)C2)CC[C@H](C(=O)O)CC1,< 4.40

# More lines, now with the values ahead:
row,pEC50,SMILES
1,< 4.40,COC(=O)[C@H]1CC[C@H](C(=O)N2CC[C@](c3ccc(C(F)(C(F)(F)F)C(F)(F)F)cc3)(S(=O)(=O)c3ccc(F)cc3)C2)CC1
2,< 4.40,COC1(C(=O)N2CC[C@](c3ccc(C(F)(C(F)(F)F)C(F)(F)F)cc3)(S(=O)(=O)c3ccc(F)cc3)C2)CCS(=O)(=O)CC1
3,< 4.40,O=C(O)[C@H]1CC[C@](F)(C(=O)N2CC[C@](c3ccc(C(F)(C(F)(F)F)C(F)(F)F)cc3)(S(=O)(=O)c3ccc(F)cc3)C2)CC1

# Target: T5, Oxysterols receptor LXR-alpha (Homo sapiens, UniProt Q13133)
# T5 sequence (Q13133 whole entry): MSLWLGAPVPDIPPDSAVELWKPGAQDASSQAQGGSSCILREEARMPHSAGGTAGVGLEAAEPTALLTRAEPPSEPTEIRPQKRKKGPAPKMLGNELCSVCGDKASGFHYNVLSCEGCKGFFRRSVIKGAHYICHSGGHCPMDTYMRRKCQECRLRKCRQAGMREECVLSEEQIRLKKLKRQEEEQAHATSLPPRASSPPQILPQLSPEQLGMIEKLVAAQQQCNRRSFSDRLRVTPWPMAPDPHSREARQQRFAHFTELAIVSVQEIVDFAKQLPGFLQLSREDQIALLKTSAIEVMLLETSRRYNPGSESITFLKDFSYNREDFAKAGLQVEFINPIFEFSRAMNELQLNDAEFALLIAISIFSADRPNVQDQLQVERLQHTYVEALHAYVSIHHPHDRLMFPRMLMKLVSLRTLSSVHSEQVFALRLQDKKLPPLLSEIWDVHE
# Test: Transactivation of human GAL4-fused LXRalpha expressed in African green monkey CV1 cells
# Type: cell-based
# Conditions: not given
row,SMILES,pEC50
1,O=C(O)C12CCC(C(=O)N3CC[C@](c4ccc(C(F)(C(F)(F)F)C(F)(F)F)cc4)(S(=O)(=O)c4ccc(F)cc4)C3)(CC1)C2,< 5.12
2,CCC[C@]1(C(=O)N2CC[C@](c3ccc(C(F)(C(F)(F)F)C(F)(F)F)cc3)(S(=O)(=O)c3ccc(F)cc3)C2)CC[C@H](C(=O)O)CC1,< 5.12

# The next lines start with the values.
row,pEC50,SMILES
1,< 5.12,COC(=O)[C@H]1CC[C@H](C(=O)N2CC[C@](c3ccc(C(F)(C(F)(F)F)C(F)(F)F)cc3)(S(=O)(=O)c3ccc(F)cc3)C2)CC1
2,< 5.12,COC1(C(=O)N2CC[C@](c3ccc(C(F)(C(F)(F)F)C(F)(F)F)cc3)(S(=O)(=O)c3ccc(F)cc3)C2)CCS(=O)(=O)CC1
3,< 5.12,O=C(O)[C@H]1CC[C@](F)(C(=O)N2CC[C@](c3ccc(C(F)(C(F)(F)F)C(F)(F)F)cc3)(S(=O)(=O)c3ccc(F)cc3)C2)CC1

# Target: T6, Oxysterols receptor LXR-beta (Homo sapiens, UniProt P55055)
# T6 sequence (P55055 whole entry): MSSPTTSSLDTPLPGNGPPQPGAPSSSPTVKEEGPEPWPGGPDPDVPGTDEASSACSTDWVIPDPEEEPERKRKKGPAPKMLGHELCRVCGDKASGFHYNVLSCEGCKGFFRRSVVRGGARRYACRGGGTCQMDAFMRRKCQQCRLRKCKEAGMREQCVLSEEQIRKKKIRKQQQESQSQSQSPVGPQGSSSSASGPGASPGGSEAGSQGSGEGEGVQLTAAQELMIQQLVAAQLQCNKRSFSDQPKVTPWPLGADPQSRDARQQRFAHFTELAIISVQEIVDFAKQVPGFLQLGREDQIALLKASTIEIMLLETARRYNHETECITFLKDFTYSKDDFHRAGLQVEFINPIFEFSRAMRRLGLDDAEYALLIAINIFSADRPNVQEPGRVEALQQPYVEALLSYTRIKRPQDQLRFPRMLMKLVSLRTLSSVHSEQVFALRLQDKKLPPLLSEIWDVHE
# Test: Transactivation of human GAL4-fused LXRbeta expressed in African green monkey CV1 cells
# Type: cell-based
# Conditions: not given
row,SMILES,pEC50
1,O=C(O)C12CCC(C(=O)N3CC[C@](c4ccc(C(F)(C(F)(F)F)C(F)(F)F)cc4)(S(=O)(=O)c4ccc(F)cc4)C3)(CC1)C2,< 5.12
2,CCC[C@]1(C(=O)N2CC[C@](c3ccc(C(F)(C(F)(F)F)C(F)(F)F)cc3)(S(=O)(=O)c3ccc(F)cc3)C2)CC[C@H](C(=O)O)CC1,< 5.12

# Second part, the compound after the results:
row,pEC50,SMILES
1,< 5.12,COC(=O)[C@H]1CC[C@H](C(=O)N2CC[C@](c3ccc(C(F)(C(F)(F)F)C(F)(F)F)cc3)(S(=O)(=O)c3ccc(F)cc3)C2)CC1
2,< 5.12,COC1(C(=O)N2CC[C@](c3ccc(C(F)(C(F)(F)F)C(F)(F)F)cc3)(S(=O)(=O)c3ccc(F)cc3)C2)CCS(=O)(=O)CC1
3,< 5.12,O=C(O)[C@H]1CC[C@](F)(C(=O)N2CC[C@](c3ccc(C(F)(C(F)(F)F)C(F)(F)F)cc3)(S(=O)(=O)c3ccc(F)cc3)C2)CC1
